Data reported in patent publication US20040121316A1 (priority 2002, published 2004).
pEC50, pKi: −log10 of the molar value. Values joined by “and” are separate entries in the source; they are usually repeats but may differ in a detail not shown here. Equal entries are not always repeated. Where two headings read alike, the source gives them in different places.

Experiments:
[1] = biological target: T1, recombinant HIV-1 protease (Human immunodeficiency virus type 1 group M subtype B, UniProt P04585); assay: biochemical
T1 construct: Enzyme: recombinant HIV-1 protease expressed in E.Coli; purchased Bachem California, Inc. H-9040; host or cells: E. coli

mutant HIV-1 I84V/L90M = assay: Resistance Evaluation, I84V/L90M fold change; format: cell-based; design: scale not given here
[2] = test system: wild-type HIV-1 strain IIIB; assay: microbe, parasite or virus in culture; format: cell-based; design: scale not given here
84V90M HIV protease = 84V90M HIV protease (Human immunodeficiency virus type 1 group M subtype B, UniProt P04585, I572V/L578M); assay: biochemical; design: species or system HIV-1; conditions: read-out: 84V90M IC50/nM; Enzymatic assay, 84V90M
[3] = EC50 of mutant I84V/L90M relative to wild type, class symbols
[4] = Human immunodeficiency virus 1, IIIB

Structure (SMILES)	pKi ([1]; Ki, class symbols, Table 10)	pEC50 [2, 4]	I84V/L90M fold change (mutant HIV-1 I84V/L90M; mutant I84V/L90M vs wild type)	further results
COc1ccc(S(=O)(=O)N(CC(C)C)CC(O)C(Cc2ccc(NCP(=O)(NC(C)C(=O)OC(C)C)Oc3ccccc3)cc2)NC(=O)OC2COC3OCCC23)cc1 (stereo not shown) [drawing 661]				Ki ([1]; class symbols, Table 10): + +
CCCCOC(=O)C(C)NP(=O)(COc1ccc(CC(NC(=O)OC2COC3OCCC23)C(O)CN(CC(C)C)S(=O)(=O)c2ccc(OC)cc2)cc1)Oc1ccccc1 (stereo not shown) [Example 30d]	10.00 to 11.00	> 7.30		I84V/L90M fold change (mutant HIV-1 I84V/L90M; [3]): − (≦3)
CCCCOC(=O)C(C)OP(=O)(COc1ccc(CC(NC(=O)OC2COC3OCCC23)C(O)CN(CC(C)C)S(=O)(=O)c2cccc(N)c2)cc1)Oc1ccccc1 (stereo not shown) [drawing 719]			− (≦3)	Ki ([1]; Ki (pM)): 100 to 1000 pM
CC(C)CN(CC(O)C(Cc1ccccc1)NC(=O)OC1COC2OCCC12)S(=O)(=O)c1ccc(OCP(=O)(O)Oc2ccccc2)cc1 (stereo not shown)		< 5.30		Ki (pM) [1]: + +
COc1ccc(S(=O)(=O)N(CC(C)C)CC(O)C(Cc2ccc(OCP(=O)(NC(C)C(=O)OC(C)C)Oc3ccccc3)cc2)NC(=O)OC2COC3OCCC23)cc1 (stereo not shown) [Example 30c]	10.00 to 11.00 and > 11.00			I84V/L90M fold change (mutant HIV-1 I84V/L90M; [3]): − (≦3)
CC(C)CN(C[C@@H](O)[C@H](Cc1ccccc1)NC(=O)O[C@H]1CO[C@H]2OCC[C@H]21)S(=O)(=O)c1ccc(OCP(=O)(Oc2ccccc2)O[C@@H](C)C(=O)OC(C)C)cc1 (stereo partly shown) [OPh, Lac-iPr]				pKi ([1]; read-out: Ki): 9.00 to 10.00; pEC50 ([2]; read-out: EC50): 5.30 to 6.30
CCOC(=O)C(C)OP(=O)(CCN1CC=C(CC(NC(=O)OC2COC3OCCC23)C(O)CN(CC(C)C)S(=O)(=O)c2ccc(OC)cc2)CC1)Oc1ccccc1 (stereo not shown)			− (≦3)	pKi ([1]; read-out: Ki): < 9.00; EC50 (nM) [2]: + + +
COc1ccc(S(=O)(=O)N(CC(C)C)CC(O)C(CC2=CCN(CP(=O)(O)OC(C)C(=O)O)CC2)NC(=O)OC2COC3OCCC23)cc1 (stereo not shown)			− (≦3)	Ki (pM) [1]: + + +; EC50 (nM) [2]: + + +
CCOC(=O)C(C)OP(=O)(Cc1ccc2c(c1)CCN(C[C@H](NC(=O)O[C@H]1CO[C@H]3OCC[C@H]31)[C@H](O)CN(CC(C)C)S(=O)(=O)c1ccc(OC)cc1)C2)Oc1ccccc1 (stereo partly shown)			+ +	Ki (pM) [1]: + +; EC50 (nM) [2]: + +
CCOC(=O)C(C)OP(=O)(Cc1ccc2c(c1)CCN(CC(NC(=O)OC1COC3OCCC13)C(O)CN(CC(C)C)S(=O)(=O)c1ccc(OC)cc1)C2)Oc1ccccc1 (stereo not shown)	9.00 to 10.00			I84V/L90M fold change (mutant HIV-1 I84V/L90M; [3]): + (>3 to ≦10)
CCCCOC(=O)CNP(=O)(COc1ccc(CC(NC(=O)OC2COC3OCCC23)C(O)CN(CC(C)C)S(=O)(=O)c2ccc(OC)cc2)cc1)Oc1ccccc1 (stereo not shown) [drawing 614 R1=OPh R2=Gly-Bu]	10.00 to 11.00	6.30 to 7.30		I84V/L90M fold change (mutant HIV-1 I84V/L90M; [3]): − (≦3)
COc1ccc(S(=O)(=O)N(CC(C)C)C[C@@H](O)[C@H](Cc2ccc(OCP(=O)(Oc3ccccc3)Oc3ccccc3)cc2)NC(=O)OC2CCOC2)cc1 (stereo partly shown) [OMe, phenol]			+ (>3 to ≦10)	Ki (pM) [1]: + + +; EC50 (nM) [2]: + + +
COc1ccc(S(=O)(=O)N(CC(C)C)CC(O)C(CC2=CCN(CCP(=O)(OCc3ccccc3)OCc3ccccc3)CC2)NC(=O)OC2COC3OCCC23)cc1 (stereo not shown) [drawing 673]			− (≦3)	pKi ([1]; read-out: Ki): < 9.00; EC50 (nM) [2]: + +
CC(C)CN(CC(O)C(Cc1ccc(OCP(=O)(NC(C)C(=O)OC(C)C)Oc2ccccc2)cc1)NC(=O)OC1CCOC1)S(=O)(=O)c1ccc(N)cc1 (stereo not shown) [drawing 697 R1=OPh R2=Ala-iPr]	9.00 to 10.00			Ki ([1]; class symbols, Table 10): + +; I84V/L90M fold change (mutant HIV-1 I84V/L90M; [3]): + (>3 to ≦10); EC50 ([2]; class symbols, Table 10): + +
CCOC(=O)C(C)OP(=O)(COc1ccc2c(c1)CCN(CC(NC(=O)OC1COC3OCCC13)C(O)CN(CC(C)C)S(=O)(=O)c1ccc(OC)cc1)C2)Oc1ccccc1 (stereo not shown)	9.00 to 10.00			I84V/L90M fold change (mutant HIV-1 I84V/L90M; [3]): + (>3 to ≦10)
CCCCOC(=O)C(C)OP(=O)(COc1ccc(CC(NC(=O)OC2COC3OCCC23)C(O)CN(CC(C)C)S(=O)(=O)c2ccc(OC)cc2)cc1)Oc1ccccc1 (stereo not shown) [Example 31c]	10.00 to 11.00	6.30 to 7.30		I84V/L90M fold change (mutant HIV-1 I84V/L90M; [3]): − (≦3)
Cc1ccc(C(=O)N[C@@H](Cc2ccc(OCP(=O)(OCc3ccccc3)OCc3ccccc3)cc2)[C@H](O)CN(CC(C)C)S(=O)(=O)c2ccc(N)cc2)cc1O				Ki (pM) [1]: + +
COc1ccc(S(=O)(=O)N(CC(C)C)CC(O)C(Cc2ccc(OCP(=O)(O)Oc3ccccc3)cc2)NC(=O)OC2COC3OCCC23)cc1 (stereo not shown) [drawing 608 R1=OH R2=OPh]	> 11.00	< 5.30		
COc1ccc(S(=O)(=O)N(CC(C)C)CC(O)C(Cc2ccc(OCP(=O)(Oc3ccccc3)OC(C)C(=O)OC(C)C)cc2)NC(=O)OC2COC3OCCC23)cc1 (stereo not shown) [Example 31a]	10.00 to 11.00 and > 11.00	> 7.30		I84V/L90M fold change (mutant HIV-1 I84V/L90M; [3]): − (≦3)
COc1ccc(S(=O)(=O)N(CC(C)C)CC(O)C(Cc2ccc(NCP(=O)(NC(C)C(=O)OC(C)C)Oc3ccccc3)cc2)NC(=O)OC2COC3OCCC23)cc1 (stereo not shown) [drawing 662]				Ki ([1]; class symbols, Table 10): + + +

Structure (SMILES)	pKi ([1]; Ki, class symbols, Table 10)	pEC50 [2, 4]	I84V/L90M fold change (mutant HIV-1 I84V/L90M; mutant I84V/L90M vs wild type)	further results
CCOP(=O)(COc1ccc(CC(NC(=O)OC2COC3OCCC23)C(O)CN(CC(C)C)S(=O)(=O)c2ccc(OC)cc2)cc1)Oc1ccccc1 (stereo not shown) [drawing 608 R1=OEt R2=OPh]	> 11.00	> 7.30		
COc1ccc(S(=O)(=O)N(CC(C)C)CC(O)C(CN(C)Cc2ccc(P(=O)(O)OC(C)C(=O)O)cc2)NC(=O)OC2COC3OCCC23)cc1 (stereo not shown)			+ + +	Ki (pM) [1]: + +; pEC50 ([2]; read-out: EC50): 5.30 to 6.30
COc1ccc(S(=O)(=O)N(CC(C)C)CC(O)C(Cc2ccc(NCP(=O)(NC(C)C(=O)OC(C)C)Oc3ccccc3)cc2)NC(=O)OC2COC3OCCC23)cc1 (stereo not shown) [drawing 660]				Ki ([1]; class symbols, Table 10): + +
COC(=O)C(C)NP(=O)(COc1ccc(CC(NC(=O)OC2COC3OCCC23)C(O)CN(CC(C)C)S(=O)(=O)c2ccc(OC)cc2)cc1)Oc1ccccc1 (stereo not shown) [Example 30a]	10.00 to 11.00	> 7.30		I84V/L90M fold change (mutant HIV-1 I84V/L90M; [3]): − (≦3)
CCOP(=O)(CCCNC(=O)c1cccc(CN2C(=O)N(Cc3ccc4[nH]nc(N)c4c3)C(Cc3ccccc3)C(O)C(O)C2Cc2ccccc2)c1)OCC (stereo not shown) [drawing 820]				IC50 (84V90M HIV protease): 10 nM
CC(C)CN(C[C@@H](O)[C@H](Cc1ccc(OCP(=O)(Oc2ccccc2)Oc2ccccc2)cc1)NC(=O)OC1CCOC1)S(=O)(=O)c1ccc(N)cc1 (stereo partly shown) [NH2, phenol]			− (≦3)	pKi ([1]; read-out: Ki): 9.00 to 10.00; EC50 (nM) [2]: + +
COc1ccc(S(=O)(=O)N(CC(C)C)CC(O)C(Cc2ccc(OCP(=O)(OC)Oc3ccccc3)cc2)NC(=O)OC2COC3OCCC23)cc1 (stereo not shown) [drawing 608 R1=OMe R2=OPh]	10.00 to 11.00	> 7.30		
CCOC(=O)C(C)OP(=O)(COc1ccc(CC(NC(=O)OC2COC3OCCC23)C(O)CN(CC(C)C)S(=O)(=O)c2ccc(OC)cc2)cc1)Oc1ccccc1 (stereo not shown) [Example 31e]	> 11.00	> 7.30		
CCOC(=O)COP(=O)(COc1ccc(CC(NC(=O)OC2COC3OCCC23)C(O)CN(CC(C)C)S(=O)(=O)c2ccc(OC)cc2)cc1)Oc1ccccc1 (stereo not shown) [drawing 615 R1=OPh R2=Glc-Et]	> 11.00	6.30 to 7.30		I84V/L90M fold change (mutant HIV-1 I84V/L90M; [3]): − (≦3)
CCCCOC(=O)C(C)OP(=O)(COc1ccc(CC(NC(=O)OC2COC3OCCC23)C(O)CN(CC(C)C)S(=O)(=O)c2cccc(N)c2)cc1)Oc1ccccc1 (stereo not shown) [drawing 720]				Ki (pM) [1]: + +
CCOP(=O)(CCN1CCN(CC(NC(=O)OC2COC3OCCC23)C(O)CN(CC(C)C)S(=O)(=O)c2ccc(OC)cc2)CC1)OCC (stereo not shown)				Ki [1]: + +
COc1ccc(S(=O)(=O)N(CC(C)C)CC(O)C(Cc2ccc(OCP(=O)(NC(C)C(=O)OC(C)C)Oc3ccccc3)cc2)NC(=O)OC2COC3OCCC23)cc1 (stereo not shown) [drawing 614 R1=OPh R2=Ala-iPr]	> 11.00 and 10.00 to 11.00	> 7.30		
CCOC(=O)C(C)OP(=O)(COc1ccc(CC(NC(=O)OC2COC3OCCC23)C(O)CN(CC(C)C)S(=O)(=O)c2ccc(OC)cc2)cc1)Oc1cccc(CN)c1 [drawing 617 R1=OPb-m-CH2NH2 R2=(S)Lac-Et]	10.00 to 11.00	6.30 to 7.30		
CCOC(=O)C(C)OP(=O)(CN1CC=C(CC(NC(=O)OC2COC3OCCC23)C(O)CN(CC(C)C)S(=O)(=O)c2ccc(OC)cc2)CC1)Oc1ccccc1 (stereo not shown)			− (≦3)	EC50 (nM) [2]: + + +
COc1ccc(S(=O)(=O)N(CC(C)C)CC(O)C(Cc2ccc(NCP(=O)(O)O)cc2)NC(=O)OC2COC3OCCC23)cc1 (stereo not shown)			+ (>3 to ≦10)	pKi ([1]; read-out: Ki): 9.00 to 10.00; EC50 (nM) [2]: + +
COC(=O)N[C@H](C(=O)N[C@@H](Cc1ccccc1)[C@@H](O)CN(Cc1ccc(-c2ccccn2)cc1)NC(=O)[C@@H](NC(=O)OC)C(C)(C)C)C(C)(C)C [Atazanavir, reference compound]		> 7.30		pKi ([1]; Ki): 10.00 to 11.00; I84V/L90M fold change (mutant HIV-1 I84V/L90M; [3]): +++ (>30)
CCOP(=O)(COc1ccc(CC(NC(=O)OC2CCOC2)C(O)CN(CC(C)C)S(=O)(=O)c2ccc(OC)cc2)cc1)OCC (stereo not shown) [OMe, OEt]			+ + and + + +	Ki (pM) [1]: + + and + + +; EC50 (nM) [2]: + + +
CCOC(=O)C(C)NP(=O)(COc1ccc(CC(NC(=O)OC2COC3OCCC23)C(O)CN(CC(C)C)S(=O)(=O)c2ccc(OC)cc2)cc1)Oc1ccccc1 (stereo not shown) [Example 30b]	> 11.00	> 7.30		
CC(C)CN(CC(O)C(Cc1ccc(OCP(=O)(O)O)cc1)NC(=O)OC1COC2OCCC12)S(=O)(=O)c1cccc(N)c1 (stereo not shown)		5.30 to 6.30	− (≦3)	
Cc1cccc(C)c1OCC(=O)NC(Cc1ccc(OCP(=O)(O)O)cc1)C(O)CN(CC(C)C)S(=O)(=O)c1ccc(N)cc1 (stereo not shown)		< 5.30	− (≦3)	
